Literature values in patent US20230364199A1, “IMPROVEMENT OF PHYSICAL AND MENTAL WELL-BEING OF PATIENTS WITH HYPOPARATHYROIDISM” (ASCENDIS PHARMA BONE DISEASES A/S, priority 2020, published 2023).

Columns and labels:
[1] = system: patients with hypoparathyroidism
[2] = system: patients with hypoparathyroidism; settings: 54 patients, after 1 year of treatment, every other day
[3] = system: adults with chronic hypoparathyroidism; settings: supplements adjusted to target serum calcium

PTH 1-34: PTH polypeptide of SEQ ID NO: 51 (PTH 1-34) (SVSEIQLMHNLGKHLNSMERVEWLRKKLQDVHNF; human PTH 1-34)
9-min walk-run test ([1]; seven patients, before and after 3 years of treatment, twice a day): no significant changes
fatigue and physical endurance described by patients ([1]; several patients, during PTH treatment): less fatigue and greater physical endurance

B1: PTH 1-84: PTH polypeptide of SEQ ID NO: 1 (PTH 1-84) (protein, listed as Homo sapiens)
chain: SVSEIQLMHNLGKHLNSMERVEWLRKKLQDVHNFVALGAPLAPRDAGSQRPRKKEDNVLVESHEKSLGEADKADVNVLTKAKSQ
QoL, mental component score and physical component score (RAND 36-Item Health Survey) [2]: improvement in QoL
QoL (SF-36), between-group differences versus placebo [3]: not statistically significant
